The structures appear in SMILES notation.

Sequence of IGF-1R (P08069 31-1367): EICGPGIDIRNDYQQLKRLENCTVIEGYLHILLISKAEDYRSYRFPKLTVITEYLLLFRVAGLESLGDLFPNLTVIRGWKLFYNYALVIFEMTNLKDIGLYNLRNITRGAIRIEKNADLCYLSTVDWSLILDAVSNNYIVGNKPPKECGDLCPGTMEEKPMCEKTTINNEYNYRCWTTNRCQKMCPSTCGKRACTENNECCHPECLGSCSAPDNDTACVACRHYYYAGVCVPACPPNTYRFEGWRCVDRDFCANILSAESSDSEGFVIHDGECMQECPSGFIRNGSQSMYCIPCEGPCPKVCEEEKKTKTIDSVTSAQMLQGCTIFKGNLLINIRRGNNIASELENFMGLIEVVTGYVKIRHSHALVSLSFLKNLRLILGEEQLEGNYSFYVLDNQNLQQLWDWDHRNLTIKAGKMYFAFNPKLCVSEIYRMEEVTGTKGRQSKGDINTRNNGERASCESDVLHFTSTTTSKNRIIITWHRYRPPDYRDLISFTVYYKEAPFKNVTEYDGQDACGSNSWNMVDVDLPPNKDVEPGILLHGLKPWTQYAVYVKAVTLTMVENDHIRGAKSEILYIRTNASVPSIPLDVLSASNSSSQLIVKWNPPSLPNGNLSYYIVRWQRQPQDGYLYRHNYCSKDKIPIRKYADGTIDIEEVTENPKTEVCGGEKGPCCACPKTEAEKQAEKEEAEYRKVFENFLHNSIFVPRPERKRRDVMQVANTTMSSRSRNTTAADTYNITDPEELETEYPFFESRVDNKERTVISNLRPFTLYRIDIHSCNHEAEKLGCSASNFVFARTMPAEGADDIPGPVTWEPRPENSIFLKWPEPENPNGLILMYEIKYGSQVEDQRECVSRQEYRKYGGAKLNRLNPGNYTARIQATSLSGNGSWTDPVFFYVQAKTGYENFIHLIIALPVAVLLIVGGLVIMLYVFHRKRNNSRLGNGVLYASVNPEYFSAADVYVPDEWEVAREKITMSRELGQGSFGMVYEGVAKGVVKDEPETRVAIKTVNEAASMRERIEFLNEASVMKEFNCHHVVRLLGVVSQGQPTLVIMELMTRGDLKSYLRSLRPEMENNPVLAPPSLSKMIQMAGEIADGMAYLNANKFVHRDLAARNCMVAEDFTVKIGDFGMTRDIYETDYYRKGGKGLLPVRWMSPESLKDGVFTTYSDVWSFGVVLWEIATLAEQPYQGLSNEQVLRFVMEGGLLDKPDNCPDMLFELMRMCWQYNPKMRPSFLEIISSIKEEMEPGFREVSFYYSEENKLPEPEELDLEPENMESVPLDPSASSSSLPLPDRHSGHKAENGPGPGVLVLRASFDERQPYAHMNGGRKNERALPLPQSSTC

The target of the assay is IGF-1R (Homo sapiens (Human), UniProt P08069). The experiment in a line: Example B-1: IGF-1R Assay (PC3 cells, IGF1 stimulation, AlphaLISA). It is filed as cell-based. To be noted: 200 ng/mL IGF1 stimulation, read-out: Biological Activity against IGF-1R IC50. A digest of the protocol:
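PC3 cells were serum-starved 2 h, treated with serially diluted compounds for 2 h, then stimulated with IGF1 (200 ng/mL final) for 30 min. Lysates were read by AlphaLISA; % inhibition was calculated relative to vehicle and EC80 controls, with IC50 values binned into ranges.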
In the case of `COc1cc(Nc2nccc(Nc3ccc4c(c3)CCCC4=O)n2)ccc1OCCCN1CCCCC1` [Compound 449, 6-{2-[3-methoxy-4-(3-piperidinopropoxy)phenylamino]-4-pyrimidinylamino}-3,4-dihydro-1(2H)-naphthalenone], the IC50 is at most 500 nM.
`COc1ccc2cc(Nc3ccnc(Nc4ccc(OCCCN5CCS(=O)(=O)CC5)cc4)n3)cnc2c1` [Compound 400, 4-(3-{p-[4-(7-methoxy-3-quinolylamino)-2-pyrimidinylamino]phenoxy}propyl)-1λ^6,4-thiazinane-1,1-dione]: the IC50 is 500 to 2000 nM.
Then `COc1cc(Nc2nccc(Nc3cnc4c(c3)OCC(CN(C)C)O4)n2)ccc1O[C@H]1C[C@@H](N(C)C)C1` (stereo partly drawn) [Compound 179, 4-{3-[(dimethylamino)methyl]-2,3-dihydro-1,4-dioxa-5-aza-7-naphthylamino}-2-{3-methoxy-4-[(1s,3s)-3-(dimethylamino)cyclobutoxy]phenylamino}pyrimidine], with at most 500 nM.
Turning to `COc1cc(Nc2nccc(Nc3cnc4ccccc4c3)n2)ccc1O[C@H]1CC[C@@H](N(C)C)CC1` [Compound 331], the IC50 is at most 500 nM.
In the case of `COc1cc(Nc2nccc(Nc3cc4cccc(F)c4[nH]c3=O)n2)cnc1N1CCOCC1` [Compound 241, 8-fluoro-3-[2-(5-methoxy-6-morpholino-3-pyridylamino)-4-pyrimidinylamino]-1,2-dihydro-2-quinolinone], the IC50 was at most 500 nM.
As for `COc1cc(Nc2cc(Nc3cnc4ccccc4c3)ccn2)ccc1O[C@H]1C[C@@H](N(C)C)C1` [Compound 265, 2-{3-methoxy-4-[(1s,3s)-3-(dimethylamino)cyclobutoxy]phenylamino}-4-(3-quinolylamino)pyridine], the IC50 was in the range of 2000 to 10000 nM.
As for `COc1cc(Nc2nccc(Nc3cnc4c(F)cc(F)cc4c3)n2)ccc1O[C@H]1C[C@@H](N(C)C)C1` [Compound 113, 4-(6,8-difluoro-3-quinolylamino)-2-{3-methoxy-4-[(1s,3s)-3-(dimethylamino)cyclobutoxy]phenylamino}pyrimidine], the IC50 was at most 500 nM.
Take `O=S1(=O)CCN([C@H]2C[C@H](Oc3ccc(Nc4nccc(Nc5cnc6cc(Cl)ccc6c5)n4)cc3)C2)CC1` [Compound 350, 4-[(1r,3r)-3-{p-[4-(7-chloro-3-quinolylamino)-2-pyrimidinylamino]phenoxy}cyclobutyl]-1λ^6,4-thiazinane-1,1-dione]: the IC50 lay within 2000 to 10000 nM.
Then `COc1cc(Nc2nccc(Nc3cc4cccc(F)c4[nH]c3=O)n2)cnc1N1CCNC(C(F)F)C1` (stereo not drawn) [Compound 233, 3-(2-{6-[3-(difluoromethyl)-1-piperazinyl]-5-methoxy-3-pyridylamino}-4-pyrimidinylamino)-8-fluoro-1,2-dihydro-2-quinolinone], with at most 500 nM.
In the case of `COc1cc(N2CCC(C)(O)CC2)ncc1Nc1nccc(Nc2cnc3ccc(Cl)cc3c2)n1` [Compound 490, 1-{5-[4-(6-chloro-3-quinolylamino)-2-pyrimidinylamino]-4-methoxy-2-pyridyl}-4-methyl-4-piperidinol], the IC50 is at most 500 nM.
As for `COc1cc(Nc2nccc(Nc3cc4cccc(F)c4nc3O)n2)cnc1OC1CCNCC1` [Compound 261, 8-fluoro-3-{2-[5-methoxy-6-(4-piperidyloxy)-3-pyridylamino]-4-pyrimidinylamino}-2-quinolinol], the IC50 was at most 500 nM.
Take `CN(C)[C@H]1C[C@H](Oc2ccc(Nc3nccc(Nc4cnc5ccccc5c4)n3)cc2Cl)C1` [Compound 35, 2-{3-chloro-4-[(1r,3r)-3-(dimethylamino)cyclobutoxy]phenylamino}-4-(3-quinolylamino)pyrimidine]: the IC50 was at most 500 nM.
Under `COc1cc(Nc2nccc(Nc3cc4ccccc4nc3OC)n2)ccc1OCCCN1CCCCC1` [Compound 108, 2-[3-methoxy-4-(3-piperidinopropoxy)phenylamino]-4-(2-methoxy-3-quinolylamino)pyrimidine] stands at most 500 nM; under `COc1cc(Nc2nccc(Nc3cc4ccc(F)cc4[nH]c3=O)n2)cnc1O[C@H]1C[C@@H](N(C)C)C1` [Compound 244, 7-fluoro-3-(2-{5-methoxy-6-[(1s,3s)-3-(dimethylamino)cyclobutoxy]-3-pyridylamino}-4-pyrimidinylamino)-1,2-dihydro-2-quinolinone], at most 500 nM.
As for `O=S1(=O)CCN(CCCOc2ccc(Nc3nccc(Nc4cnc5c(c4)C4CCC5C4)n3)cc2)CC1` (stereo not drawn) [Compound 371, 4-[3-(p-{4-(3-azatricyclo[6.2.1.0^2,7]undeca-2,4,6-trien-5-ylamino)-2-pyrimidinylamino}phenoxy)propyl]-1λ^6,4-thiazinane-1,1-dione], the IC50 is at most 500 nM.
Take `O=C1CN([C@H]2CC[C@@H](Oc3ccc(Nc4nccc(Nc5cnc6ccc(Cl)cc6c5)n4)cc3)CC2)CCN1` [Compound 308]: the IC50 is at most 500 nM.
Regarding `CN(C)CC(=O)N1CCc2cc(Nc3nccc(Nc4cc5cccc(F)c5[nH]c4=O)n3)ccc21` [Compound 151, 3-((2-((1-(dimethylglycyl)indolin-5-yl)amino)pyrimidin-4-yl)amino)-8-fluoroquinolin-2(1H)-one], the IC50 is at most 500 nM.
On to `CC1(C)COc2cc(Nc3ccnc(Nc4ccc(OCCCN5CCOCC5)cc4)n3)cnc2O1` [Compound 65, 4-(3,3-dimethyl-2,3-dihydro-1,4-dioxa-5-aza-7-naphthylamino)-2-[p-(3-morpholinopropoxy)phenylamino]pyrimidine], for which the IC50 was at most 500 nM.
Take `COc1cc(Nc2nccc(Nc3cnc4ccc(C5CC5)cc4c3)n2)ccc1O[C@H]1C[C@H](N(C)C)C1` [Compound 325, 4-(6-cyclopropyl-3-quinolylamino)-2-{3-methoxy-4-[(1r,3r)-3-(dimethylamino)cyclobutoxy]phenylamino}pyrimidine]: the IC50 is at most 500 nM.
Under `CN(C)[C@H]1CC[C@@H](Oc2ccc(Nc3nccc(Nc4cnc5ccc(Cl)cc5c4)n3)cc2)CC1` [Compound 310, 4-(6-chloro-3-quinolylamino)-2-{p-[(1s,4s)-4-(dimethylamino)cyclohexyloxy]phenylamino}pyrimidine] stands at most 500 nM; under `COc1cc(N2CCC(C)(O)CC2)ncc1Nc1nccc(Nc2cnc3cc(F)c(F)cc3c2)n1` [Compound 488, 1-{5-[4-(6,7-difluoro-3-quinolylamino)-2-pyrimidinylamino]-4-methoxy-2-pyridyl}-4-methyl-4-piperidinol], at most 500 nM.
On to `COc1cc(Nc2nccc(Nc3cc4cccc(F)c4[nH]c3=O)n2)cnc1O[C@@H]1CCN(C)C1` [Compound 165, 3-(2-{6-[(R)-1-methyl-3-pyrrolidinyloxy]-5-methoxy-3-pyridylamino}-4-pyrimidinylamino)-8-fluoro-1,2-dihydro-2-quinolinone], for which the IC50 is 500 to 2000 nM.
For `COc1cc(Nc2nccc(Nc3cnc4c(c3)OC(CN(C)C)CO4)n2)ccc1O[C@H]1C[C@@H](N(C)C)C1` (stereo partly drawn) [Compound 259, 4-{2-[(dimethylamino)methyl]-2,3-dihydro-1,4-dioxa-5-aza-7-naphthylamino}-2-{3-methoxy-4-[(1s,3s)-3-(dimethylamino)cyclobutoxy]phenylamino}pyrimidine], the IC50 was at most 500 nM.
For the molecule `COc1cc(Nc2nccc(Nc3cnc4c(c3)SCCC4)n2)ccc1O[C@H]1C[C@@H](N(C)C)C1` [Compound 366, 4-(3,4-dihydro-2H-1-thia-5-azanaphth-7-ylamino)-2-{3-methoxy-4-[(1s,3s)-3-(dimethylamino)cyclobutoxy]phenylamino}pyrimidine], the IC50 was at most 500 nM.
As to `O=S1(=O)CCN([C@H]2C[C@H](Oc3ccc(Nc4nccc(Nc5cnc6c(c5)OCCO6)n4)cc3)C2)CC1` [Compound 348], the IC50 was at most 500 nM.
Consider `COc1cc(Nc2nccc(Nc3cnc4cc(Br)ccc4c3)n2)ccc1O[C@H]1C[C@H](N(C)C)C1` [Compound 328, 4-(7-bromo-3-quinolylamino)-2-{3-methoxy-4-[(1r,3r)-3-(dimethylamino)cyclobutoxy]phenylamino}pyrimidine], for which the IC50 is at most 500 nM.
For the molecule `FC(F)(F)c1cccc2cc(Nc3ccnc(Nc4ccc(OCCCN5CCOCC5)cc4)n3)cnc12` [Compound 415, 2-[p-(3-morpholinopropoxy)phenylamino]-4-[8-(trifluoromethyl)-3-quinolylamino]pyrimidine], the IC50 was in the range of 2000 to 10000 nM.
`c1ccc2ncc(Nc3ccnc(Nc4ccc(OCCCN5CCCCC5)c(OCC5CCOCC5)c4)n3)cc2c1` [Compound 418]: the IC50 was at most 500 nM.
Then `COc1cc(Nc2nccc(Nc3cnc4ccc(Br)cc4c3)n2)ccc1O[C@H]1CC[C@@H](N2CCOCC2)CC1` [Compound 32, 4-(6-bromo-3-quinolylamino)-2-{3-methoxy-4-[(1s,4s)-4-morpholinocyclohexyloxy]phenylamino}pyrimidine], with at most 500 nM; and `COc1cc(Nc2nccc(Nc3cnc4c(c3)OCCO4)n2)ccc1O[C@H]1C[C@H](N2CCOCC2)C1` [Compound 23, 4-(2,3-dihydro-1,4-dioxa-5-aza-7-naphthylamino)-2-{3-methoxy-4-[(1r,3r)-3-morpholinocyclobutoxy]phenylamino}pyrimidine], with at most 500 nM; and `COc1cc(Nc2nccc(Nc3ccc4ncc(Br)cc4n3)n2)ccc1O[C@H]1C[C@@H](N(C)C)C1` [Compound 314, 4-(7-bromo-1,5-diaza-2-naphthylamino)-2-{3-methoxy-4-[(1s,3s)-3-(dimethylamino)cyclobutoxy]phenylamino}pyrimidine], with above 10000 nM.
Take `COc1cc(Nc2nccc(Nc3cnc4cc(O)ccc4c3)n2)ccc1O[C@H]1C[C@H](N(C)C)C1` [Compound 326, 3-(2-{3-methoxy-4-[(1r,3r)-3-(dimethylamino)cyclobutoxy]phenylamino}-4-pyrimidinylamino)-7-quinolinol]: the IC50 was at most 500 nM.
Take `COc1cc(Nc2nccc(Nc3cnc4cc(F)c(F)cc4c3)n2)cnc1N1CCOC(C)(C)C1` [Compound 157, N4-(6,7-difluoroquinolin-3-yl)-N2-(6-(2,2-dimethylmorpholino)-5-methoxypyridin-3-yl)pyrimidine-2,4-diamine]: the IC50 is 500 to 2000 nM.

The values are drawn from patent publication US20250171431A1, “HETEROCYCLIC INHIBITORS OF IGF-1R FOR TREATMENT OF DISEASE” (HORIZON THERAPEUTICS IRELAND DAC, priority 2023, published 2025).
